Experiment [1] has as its system 24-HC in the brain. Put plainly: Quantification test of 24-HC in mouse brain after repeated oral administration. The class given is in vivo. The note with it: brain 24-HC; female C57BL/6N mice; 10 mg/kg orally once a day for 3 days; 16 hours after the third administration; relative to control group as 100%. The procedure: Animals used were 6-week-old female C57BL/6N mice (3 mice/group). A test compound was suspended in a 0.5% aqueous methylcellulose [133-14255 WAKO] solution (1 mg/mL). The body weight of the mice was measured, and the solution was forcibly administered orally and repeatedly once a day for 3 days. At 16 hours after the third administration, half of the brain was recovered, and the amount of 24-HC was measured.
The wet weight of the brain was measured, and the brain was homogenized with about 4-fold amount (0.5 mL) of saline. This solution was used as a brain extract. 24-HC in the brain extract was extracted with an acetonitrile solution (98% acetonitrile, 1.98% methanol, 0.02% formic acid), and quantified by HPLC. The average value of 24-HC amount was calculated and the results are shown in relative values with the control group as 100%.

Experiment [2] has as its system APP/PS1 double transgenic mouse. Nature of the experiment: Y-maze test using APP/PS1 double transgenic mouse. It counts as in vivo. The note with it: 16 hours after the 13th administration. Here is the method:
Animals used were 3-month-old female APP/PS1 double transgenic mice (10-15 mice/group). A test compound was suspended in a 0.5% aqueous methylcellulose [133-14255 WAKO] solution (1 mg/mL). The body weight of the mice was measured, and the solution was forcibly administered orally and repeatedly once a day for 14 days. At 16 hours after the 13th administration, spontaneous alternation behavior in Y-maze test was evaluated. Using a particular arm of a Y-shaped test apparatus as the starting point, the frequency of moving to a different arm was counted for 5 min. The first two times of entry were excluded from the total number of entry. In addition, the mice that entered less than 10 times in total were excluded. Movement to an arm different from the arm into which the mouse entered last but one was considered an alternation behavior, and the ratio to the total number of moving was calculated as a spontaneous alternation behavior rate. As comparison subjects, a control group (test compound-non treatment group) and a control group in wild-type mice were used.

`O=C(c1cccnc1-c1ccncn1)N1CCC(O)(Cc2ccc(F)cc2)CC1` [Example 92, (4-(4-fluorobenzyl)-4-hydroxypiperidin-1-yl) (2-(pyrimidin-4-yl)pyridin-3-yl)methanone]: the “decrease rate (%) at 10 mg/kg” value in experiment [1] came out at 60%.

On to `O=C(c1ccccc1-c1ccncn1)N1CCC(O)(Cc2ccccc2)CC1` [Example 14, (4-benzyl-4-hydroxypiperidin-1-yl) (2-(pyrimidin-4-yl)phenyl)methanone], for which the “decrease rate (%) at 10 mg/kg” value in experiment [1] was determined as 67%.

As for `O=C(c1cccnc1-c1ccncc1)N1CCC(O)(Cc2ccc(F)cc2)CC1` [Example 67, 2,4′-bipyridin-3-yl (4-(4-fluorobenzyl)-4-hydroxypiperidin-1-yl)methanone], the “decrease rate (%) at 10 mg/kg” value in experiment [1] was 43%.

`O=C(c1cccnc1-c1ccncn1)N1CCC(O)(Cc2ccccc2)CC1` [Example 54, (4-benzyl-4-hydroxypiperidin-1-yl) (2-(pyrimidin-4-yl)pyridin-3-yl)methanone]: the “decrease rate (%) at 10 mg/kg” value in experiment [1] was determined as 64%.

For the compound `O=C(c1ccc(F)cc1-c1ccncc1)N1CCC(O)(Cc2ccccn2)CC1` [Example 30, (4-fluoro-2-(pyridin-4-yl)phenyl) (4-hydroxy-4-(pyridin-2-ylmethyl)piperidin-1-yl)methanone], the “decrease rate (%) at 10 mg/kg” value in experiment [1] is recorded as 87%.

As for `O=C(c1cccnc1-c1ccncc1)N1CCC(O)(Cc2ccc(F)cc2F)CC1` [Example 87, 2,4′-bipyridin-3-yl (4-(2,4-difluorobenzyl)-4-hydroxypiperidin-1-yl)methanone], in experiment [1], the “decrease rate (%) at 10 mg/kg” value amounted to 37%.

`O=C(c1cccnc1-c1ccncc1)N1CCC(O)(Cc2ccccc2)CC1` [Example 44, (4-benzyl-4-hydroxypiperidin-1-yl) (2,4′-bipyridin-3-yl)methanone]: the “Spontaneous alternation behavior rate (%)” value in experiment [2] (10 mg/kg orally once a day) and in experiment [2] (30 mg/kg orally once a day) was 71% each time.

As for `O=C(c1cccnc1-c1ccncn1)N1CCC(O)(Cc2ccc(F)cc2F)CC1` [Example 105, (4-(2,4-difluorobenzyl)-4-hydroxypiperidin-1-yl) (2-(pyrimidin-4-yl)pyridin-3-yl)methanone], the “decrease rate (%) at 10 mg/kg” value in experiment [1] is 40%.

Take `Cc1nc(-c2ccncn2)c(C(=O)N2CCC(O)(Cc3ccc(F)cc3)CC2)s1` [Example 62, (4-(4-fluorobenzyl)-4-hydroxypiperidin-1-yl) (2-methyl-4-(pyrimidin-4-yl)-1,3-thiazol-5-yl)methanone]: in experiment [1], the “decrease rate (%) at 10 mg/kg” value came out at 71%.

Regarding `N#Cc1ccc(CC2(O)CCN(C(=O)c3cccnc3-c3ccncc3)CC2)cc1` [Example 70, 4-((1-(2,4′-bipyridin-3-ylcarbonyl)-4-hydroxypiperidin-4-yl)methyl)benzonitrile], the “decrease rate (%) at 10 mg/kg” value in experiment [1] came out at 60%.

The values are drawn from patent publication US9440990B2, “1-arylcarbonyl-4-oxy-piperidine compounds useful for the treatment of neurodegenerative diseases” (TAKEDA PHARMACEUTICAL COMPANY LIMITED, priority 2011, dated 2016).
